Results on one compound are retold here after patent US6855723B2, “Methods of modulating serine/threonine protein kinase function with azabenzimidazole-based compounds” (Zentaris GmbH, priority 1997, dated 2005).

Where two headings read alike, the source gives them in different places. Some results are limits rather than exact numbers.

One data set concerns the target T1, RAF-1 (Homo sapiens, UniProt P04049).
T1 construct: made in house; host or cells: Sf9 (Spodoptera frugiperda) insect cells co-infected with RAS and RAF recombinant baculoviruses
As to the kind of experiment: RAF-1 ELISA assay (RAF-1 phosphorylation of MEK and MAPK). Particulars: RAF-1 phosphorylation assay, lysates from RAS/RAF infected Sf9 cells, T-MEK and His-MAPK substrates. The format is biochemical. The source says:
Assay Measuring Phosphorylating Function of RAF
The following assay reports the amount of RAF-catalyzed phosphorylation of its target protein MEK as well as MEK's target MAPK. The RAF gene sequence is described in Bonner et al., 1985, Molec. Cell. Biol. 5: 1400-1407, and is readily accessible in multiple gene sequence data banks. Construction of the nucleic acid vector and cell lines utilized for this portion of the invention are fully described in Morrison et al., 1988, Proc. Natl. Acad. Sci. USA 85: 8855-8859.
All of the following steps were conducted at room temperature unless specifically indicated.
1. ELISA plate coating: ELISA wells are coated with 100 μL of Sheep anti mouse affinity purified antiserum (1 μg/100 μL coating buffer) over night at 4° C. […]
11. […] Insert the holder into radioactive detection apparatus and quantify the radioactive phosphorous on the filter mats.
Alternatively, 40 μL aliquots from individual wells of the assay plate can be transferred to the corresponding Positions on the phosphocellulose filter mat. […] Insert the holder into a detection device and quantify the radioactive phosphorous on the filter mats.
IC50 values were measured according to the protocol for the following azabenzimidazole-based compounds in the RAF-1 ELISA assay: [drawing 5] […] The IC50 values measured in the RAF-1 phosphorylation assay are depicted in Table 1: […]
A general note: In an ELISA, binding on a coated surface is turned into a signal by an enzyme label.

Data set [1] concerns A549 human lung carcinoma cells. As to the kind of experiment: Growth of A549 cells (SRB). Format: cell-based. Particulars: cell growth. As to the method:
Assay Measuring Effect of Azabenzimidazole-Based Compounds on Growth of A549 Cells
The following assay measures growth rates for A549 cells. The purpose of the assay is to determine the effects of compounds on the growth of A549 human lung carcinoma cells. A549 cells are readily accessible from commercial sources, such as ATCC (CCL185).
• 96-well flat bottom sterile plates • 96-well round bottom sterile plates • sterile 25 mL or 100 mL reservoir • pipets, multi-channel pipetman • sterile pipet tips sterile 15 mL and 50 mL tubes Reagents • 0.4% SRB in 1% acetic acid • 10 mM Tris base • 10% TCA • 1% acetic acid • sterile DMSO (Sigma) • compound in DMSO (100 mM or less stock solution) • Trypsin-EDTA (GIBCO BRL) Cell Line and Growth Medium • A549 human lung carcinoma cells (ATCC CCL185) • 10% fetal calf serum in Ham's F12-K Protocol Day 0: Cell Plating This part of assay is carried out in a laminar flow hood.
1. Trypsinize cells. Transfer 200 μL of cell suspension to 10 mL of isotone. Count cells with a Coulter Counter.
2. Dilute cells in growth medium to 20,000 cell/mL. Transfer 100 μL of cells to each well in a 96-well flat bottom plate to give 2000 cells/well.
3. Use half of plate (4 rows) for each compound and quadruplicate wells for each compound concentration, and a set of 4 wells for medium control.
4. […]
6. Read plates on Dynatech ELISA Plate Reader at 570 nm with reference at 630 nm.

The test system of data set [2] is 3T3/H-Ras (NIH 3T3 clone 7 cells expressing genomic fragment of oncogenic H-Ras). As to the kind of experiment: Growth of NIH 3T3 cells over expressing H-Ras (SRB). The format is cell-based. Particulars: Mus musculus, NIH3T3, 72 h; cell growth, 2% calf serum, 3 days incubation. As to the method: Assay Measuring the Effect of Azabenzimidazole-Based Compounds on the Growth of Cells Expression RAS
The following assay measures growth rates for NIH-3T3 cells expressing RAS. The purpose of the assay is to determine the effects of compounds on the growth of NIH 3T3 cells over expressing H-Ras.
• 96-well flat bottom sterile plates • 96-well round bottom sterile plates • sterile 25 mL or 100 mL reservoir • pipets, multi-channel pipetman • sterile pipet tips • sterile 15 mL and 50 mL tubes Reagents • 0.4% SRB in 1% acetic acid • 10 mM Tris base • 10% TCA • 1% acetic acid • sterile DMSO (Sigma) • compound in DMSO (100 mM or less stock solution) • Trypsin-EDTA (GIBCO BRL) Cell Line • 3T3/H-Ras (NIH 3T3 clone 7 cells expressing genomic fragment of oncogenic H-Ras).
The cells can be constructed using the following protocol: • 1. Subclone a gene fragment encoding Ras into a commercially available vector that will stably transfect NIH-3T3 cells. The fragment is from the genomic transforming allele of cHa-ras. • 2. Transfect NIH-3T3 cells with the subcloned vector by a calcium phosphate method. Select cells expressing the Ras construct in 2% serum in DMEM. Visible foci are observed after 2 weeks. Pool the transformed cells to generate a stably transformed cell line. […]
6. Read plates on Dynatech ELISA Plate REader at 570 nm with reference at 630 nm.

A further data set addresses T2, EGF Receptor (Homo sapiens, UniProt P00533).
T2 construct: expressed in transfected cells; host or cells: NIH3T3 cells (EGFR-NIH3T3)
Description: EGF receptor phosphorylation assay in whole cells (EGFR-NIH3T3 assay). Format: cell-based. As to conditions: EGF receptor kinase activity in whole cells. The procedure:
Assay Measuring Phosphorylating Function of EGF Receptor
EGF Receptor kinase activity (EGFR-NIH3T3 assay) in whole cells was measured as described in detail in PCT Publication WO9640116, filed Jun. 5, 1996, by Tang et al., and entitled “Indolinone Compounds for the Treatment of Disease,” incorporated herein by reference in its entirety, including any drawings.
The IC50 values measured in the EGF receptor phosphorylation assay are depicted in Table 2: […]

T2 sequence (P00533 25-1210): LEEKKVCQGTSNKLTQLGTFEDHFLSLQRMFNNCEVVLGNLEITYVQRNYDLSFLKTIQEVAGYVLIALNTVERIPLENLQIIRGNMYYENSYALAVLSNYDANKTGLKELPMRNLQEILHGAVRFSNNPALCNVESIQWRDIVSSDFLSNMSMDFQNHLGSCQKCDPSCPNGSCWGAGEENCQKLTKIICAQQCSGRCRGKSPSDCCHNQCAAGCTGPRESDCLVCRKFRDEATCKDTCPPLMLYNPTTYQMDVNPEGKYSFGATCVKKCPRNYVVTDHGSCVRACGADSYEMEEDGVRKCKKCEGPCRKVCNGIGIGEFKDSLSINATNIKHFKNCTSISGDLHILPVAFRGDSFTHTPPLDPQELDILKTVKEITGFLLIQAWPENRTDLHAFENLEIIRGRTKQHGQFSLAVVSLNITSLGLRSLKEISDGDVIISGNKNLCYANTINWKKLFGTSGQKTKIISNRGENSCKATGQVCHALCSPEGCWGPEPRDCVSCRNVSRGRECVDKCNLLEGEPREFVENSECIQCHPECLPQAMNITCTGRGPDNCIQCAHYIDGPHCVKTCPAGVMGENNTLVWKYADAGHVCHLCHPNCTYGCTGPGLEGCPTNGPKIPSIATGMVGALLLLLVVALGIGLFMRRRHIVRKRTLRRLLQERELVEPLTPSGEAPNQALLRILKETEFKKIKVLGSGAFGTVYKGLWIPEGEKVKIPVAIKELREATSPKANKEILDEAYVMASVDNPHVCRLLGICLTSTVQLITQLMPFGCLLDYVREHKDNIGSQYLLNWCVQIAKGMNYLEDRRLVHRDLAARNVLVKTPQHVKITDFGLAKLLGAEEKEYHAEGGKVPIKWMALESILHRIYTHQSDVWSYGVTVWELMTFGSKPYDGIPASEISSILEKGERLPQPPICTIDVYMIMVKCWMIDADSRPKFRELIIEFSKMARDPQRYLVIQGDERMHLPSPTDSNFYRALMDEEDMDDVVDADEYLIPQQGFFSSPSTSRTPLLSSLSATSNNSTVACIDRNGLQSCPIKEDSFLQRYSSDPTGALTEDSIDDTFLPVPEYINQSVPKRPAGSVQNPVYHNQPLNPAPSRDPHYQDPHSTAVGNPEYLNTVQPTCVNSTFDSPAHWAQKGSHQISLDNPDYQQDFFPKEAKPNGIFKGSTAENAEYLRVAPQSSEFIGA
T1 sequence (P04049 whole entry): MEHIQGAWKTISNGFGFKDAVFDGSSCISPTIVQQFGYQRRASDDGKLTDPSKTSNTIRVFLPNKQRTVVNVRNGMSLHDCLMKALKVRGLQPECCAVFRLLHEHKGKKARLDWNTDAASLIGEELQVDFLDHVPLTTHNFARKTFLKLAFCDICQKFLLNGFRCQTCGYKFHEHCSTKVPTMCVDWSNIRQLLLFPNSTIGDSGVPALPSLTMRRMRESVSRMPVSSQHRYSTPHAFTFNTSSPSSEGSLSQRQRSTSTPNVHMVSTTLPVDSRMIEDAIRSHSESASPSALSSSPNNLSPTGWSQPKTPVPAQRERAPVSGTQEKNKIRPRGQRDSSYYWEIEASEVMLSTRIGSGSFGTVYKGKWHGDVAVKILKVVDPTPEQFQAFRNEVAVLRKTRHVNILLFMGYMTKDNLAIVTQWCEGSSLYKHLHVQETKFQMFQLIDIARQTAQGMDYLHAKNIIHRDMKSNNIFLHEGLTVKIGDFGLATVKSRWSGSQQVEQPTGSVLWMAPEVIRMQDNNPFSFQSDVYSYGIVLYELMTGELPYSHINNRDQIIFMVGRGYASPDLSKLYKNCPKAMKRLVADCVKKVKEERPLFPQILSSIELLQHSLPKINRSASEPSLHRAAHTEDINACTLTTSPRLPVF

As a reminder, the IC50 is the point on the concentration scale where inhibition reaches its midpoint. Usually melting point stands for the temperature, or range, at which the solid turns liquid. With `COC(=O)Nc1nc2ccc(Oc3ccccc3)nc2[nH]1` [Compound A-3], the melting point was > 280 °C (dec.). On RAF-1, the IC50 came to 6.1 µM. The IC50 in data set [1] (2% FBS, read-out: IC50 (μM) A549 (2% FBS)) was 65 µM. In data set [1] (10% fetal calf serum in Ham's F12-K, read-out: IC50 (μM) A549), the IC50 was determined as 22 µM. Inhibition in data set [2] was half-maximal at 40 µM (IC50). At EGF Receptor, the IC50 was over 100 µM.
